Measured values taken from patent US20090239884A1, “Methods of Treating Inflammation” (priority 2006, published 2009).

Key:
CD4+CD25− T cells = experiment: qRT-PCR of PDE and cytokine genes in anti-CD3 activated CD4+CD25− T cells; type: cell-based, mouse; settings: for changes in PDE gene expression: 20 minutes; for changes in PDE gene expression / increase of PDE4B gene expression: IBMX 300 μM; for PDE3B, 7A, and 8A expression: after DP and IBMX treatment
Experimental: Cell Culture. Mouse splenocytes were prepared and cultured as described. (Dong H, Osmanova V, Epstein P M, Brocke S. Phosphodiesterase 8 (PDE8) regulates chemotaxis of activated lymphocytes. Biochem Biophys Res Commun. 2006; 345:713-719) […] were separated from CD4^+CD25^+ Treg cells using a CD4^+CD25^+ Regulatory T Cell Isolation Kit (Miltenyi Biotec, Auburn, Calif.) and activated for 18 hours on plate-bound anti-CD3 mAb (5 μg/ml). Cells of the murine brain endothelium-derived cell line bEnd.3 (ATCC, Manassas, Va.) were seeded into 24-well plates (Costar, Cambridge, Mass.) in DMEM supplemented with 100 U/ml penicillin, […] streptomycin, 2 mM LGlutamine, and 10% fetal bovine serum (all Gibco, Carlsbad, Calif.). bEnd.3 assays were performed on confluent bEnd.3 monolayers.
Quantitative real-time RT-PCR analysis. 10 ng cDNA, or 2 μl cDNA for LCM studies, was amplified by qRT-PCR in a 25 μl reaction using SYBR Green PCR Master Mix (Applied Biosystems, Foster City, Calif.). Primers were designed using Primer Express software v3.0 and primer efficiency verified by slope analysis to be 100%±2.5%. qRT-PCR was performed using an ABI 7500 fast system and data analyzed using the Δ^ct method (SDS software v3.0). Amplicon sizes were approximately 100 bp.
Cell treatment. Confluent bEnd.3 monolayers were incubated with 200 ng/ml TNF-α (Peprotech, Rocky Hill, N.J.) at 37° c. for 2 hours. […] The selective PDE3 and PDE4 inhibitors motapizone and piclamilast were supplied by Drs. Christoff Zitt and Armin Hatzelmann (Altana Pharma, Konstanz, Germany). Con A-activated splenocytes or CD4^+CD25^− T cells activated with plate-bound anti-CD3 mAb were treated with the same reagents for 20, 45, or 90 minutes.
In FIGS. 21A-21B, purified CD4^+CD25^− T cells were activated with plate-bound anti-CD3 mAb for 18 hours followed by incubation with IBMX (300 μM), DP (100 μM) or vehicle (0.1% DMSO) for (A) 20 or (B) 90 minutes. PDE (A, Bi) and cytokine (Bii) gene expression was then analyzed by qRT-PCR with the data presented as the mean+SEM of triplicate determinations. The results are representative of 2 independent experiments (*p<0.05, **p<0.001; one way ANOVA followed by Bonferroni t-test).

[1] = molecular target: Y748F mutant of PDE8A catalytic domain (Homo sapiens, UniProt O60658, Y748F); settings: cited from earlier work
PDE8A1 catalytic domain = PDE8A1 catalytic domain (Homo sapiens, UniProt O60658); settings: wild type; cited from earlier work
[2] = tested on: Con A-activated splenocytes on TNF-α activated bEnd.3 endothelial cells; experiment: T cell-endothelial cell adhesion assay (Example 13); type: cell-based, mouse
Experimental: Cell treatment. Confluent bEnd.3 monolayers were incubated with 200 ng/ml TNF-α (Peprotech, Rocky Hill, N.J.) at 37° c. for 2 hours. […] Christoff Zitt and Armin Hatzelmann (Altana Pharma, Konstanz, Germany). Con A-activated splenocytes or CD4^+CD25^− T cells activated with plate-bound anti-CD3 mAb were treated with the same reagents for 20, 45, or 90 minutes.
Adhesion assays. Adhesion assays were performed in 24-well plates with a confluent layer of bEnd.3 cells. Splenocytes or CD4^+CD25^− T cells were labeled with 5 μM Calcein AM (Molecular Probes, Eugene, Oreg.) and treated as described above. 7×10^5 pretreated splenocytes or CD4^+CD25^− T cells per well were incubated on bEnd.3 cells in RPMI media. After 30 minutes at 37° C., non-adherent cells were removed by washing with D-PBS. For analysis, 7×10^5 Calcein AM labeled splenocytes or CD4^+CD25^− T cells were used as positive controls. Fluorescence was read in a Victor 3v microplate reader (Perkin Elmer, Waltham, Mass.) with a fluorescein filter set. The percentage of adherent T cells, i.e. labeled cells resistant to detachment, was calculated as total fluorescence of well divided by fluorescence of 7×10^5 Calcein AM labeled cells multiplied by 100.
In FIGS. 20A-20B, splenocytes from C57BL/6 mice were activated with Con A (3 μg/ml) for 48 hours followed by a 45 minute incubation with (A) IBMX (300 μM), piclamilast (Picl, 1 μM) or DP (100 μM), (B) dibutryl cAMP (Db-cAMP, 500 μM) or DP in the presence or absence of adenosine deaminase (AD, 1 U/ml) or vehicle (0.1% DMSO). bEnd.3 endothelial cells were activated for 2 hours with TNF-α (200 ng/ml) and incubated with the same reagents for the final 45 minutes before splenocytes were added to the bEnd.3 cells for the adhesion assay. The data are presented as the mean±SEM percentage of splenocytes which were resistant to detachment. Results are representative of at least three independent experiments run in triplicate (*p<0.05, **p<0.001; one way ANOVA followed by Bonferroni t-test).

Chain of PDE8A1 catalytic domain (O60658 480-820 limits assumed): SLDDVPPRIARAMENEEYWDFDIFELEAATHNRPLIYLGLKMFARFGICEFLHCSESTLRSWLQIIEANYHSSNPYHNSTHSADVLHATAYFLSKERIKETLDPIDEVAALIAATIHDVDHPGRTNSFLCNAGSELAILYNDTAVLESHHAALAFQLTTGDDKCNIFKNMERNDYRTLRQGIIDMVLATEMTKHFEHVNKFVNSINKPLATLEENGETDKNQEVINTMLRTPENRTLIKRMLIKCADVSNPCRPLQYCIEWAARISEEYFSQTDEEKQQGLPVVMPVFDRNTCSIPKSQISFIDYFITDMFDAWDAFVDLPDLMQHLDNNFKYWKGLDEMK
Chain of Y748F mutant of PDE8A catalytic domain (O60658 480-820 Y748F limits assumed): as the sequence (O60658 480-820 limits assumed) above, with Y269F counted along it

Row | Compound | changes in PDE gene expression (CD4+CD25− T cells; DP 100 μM) | decrease of IL-2 gene expression (CD4+CD25− T cells; 90 minutes, DP 100 μM) [fold] | decrease of TNF-α gene expression (CD4+CD25− T cells; 90 minutes, DP 100 μM) [fold] | increase of PDE4B gene expression (CD4+CD25− T cells; 90 minutes, DP 100 μM) [fold] | PDE3B, 7A, and 8A expression (CD4+CD25− T cells) | IC50 [1] [µM] | IC50 (PDE8A1 catalytic domain) [µM] | reduction of adhesion of T cells ([2]; short term, activated endothelial cells (discussion)) [%] | sensitivity of Tyr748-to-phenylalanine mutant to inhibition [1] | sensitivity of PDE8A1 catalytic domain to inhibition (PDE8A1 catalytic domain) | ability to reduce adhesion of activated T cells to endothelial cells ([2]; 45 minute incubation, IBMX 300 μM, piclamilast 1 μM, motapizone 1 μM)
1 | OCCN(CCO)c1nc(N2CCCCC2)c2nc(N(CCO)CCO)nc(N3CCCCC3)c2n1 [Dipyridamole, 2,2′,2″,2′″-(4,8-di(piperidin-1-yl)pyrimido[5,4-d]pyrimidine-2,6-diyl)bis(azanetriyl)tetraethanol] | No significant changes | 2 | 3 | 8 | unchanged | ~4.1 | ~6 | 65 |  |  | 
2 | CC(C)Cn1c(=O)n(C)c(=O)c2[nH]cnc21 [IBMX, 3-isobutyl-1-methylxanthine] | No significant changes |  |  | 5 | unchanged |  |  |  | restores sensitivity | insensitive | neither
